Results: patent US20020028851A1, “Guanylhydrazones and their use to treat inflammatory conditions” (priority 1994, published 2002)

Columns and labels:
RAW 264.7 cells [1] = assay: Whole cell inhibition assay for arginine uptake; type: cell-based, murine; settings: for arginine transport % suppression of induced peak: γIFN+LPS, 8 hours
Method: In the embodiment described in the working example herein, a test population of cells was cultured for about 3 hours so that the cells became firmly adherent. Various concentrations of the potential inhibitors were then added to parallel cultures. One hour later the macrophage stimulators, e.g. including, but not limited to LPS and γIFN, were added. Eighteen hours later the cells were washed in a warm balanced salt solution supplemented with glucose. Carrier-free radiolabelled arginine was added; after 5 minutes, active uptake of arginine was stopped by washing the cell three times with buffer, chilled to 0° C., containing 10 mM unlabeled arginine to displace any externally bound label. The contents of the washed cells are solubilized in 100 μl of formic acid and counted by standard techniques.
RAW 264.7 cells are plated in standard 96-well microculture plates at a concentration of 10^5/well and allowed to adhere for from 2 hours to overnight. The medium is then replaced with medium containing the compound to be tested. One hour later, the medium is supplemented so as to contain 25 U/ml γIFN and 0.1 μg/ml LPS and the cultures incubated a further. The cells are then rinsed twice in HEPES- buffered Krebs salt solution with 0.1% glucose. Carrier-free tetra-^3H-arginine is added to each well (2.5 μCi/well with specific activity of […]) and the active uptake of arginine is allowed to continue for a 5 minute period after which the cells are rapidly cooled to 0° C. by lavage with iced saline containing 10 mM unlabeled arginine to displace any externally bound label. The contents of the washed cells are solubilized in 100 Al of formic acid and counted by standard techniques. In subsequent experiments to determine the acitivity of the inhibitors, incubations were performed for 8 hours.
(§1) This section describes experiments that measure the concentration of Compound No. 14 needed to inhibit arginine uptake and NO output. The techniques employed were described in section 7.1 supra.

[2] = system: Endothelial Derived Relaxing Factor (EDRF) activity; assay: Acetylcholine-induced hypotensive (EDRF) response; type: in vivo, rats; settings: 50 mg/Kg single intra-arterial dose; blood pressure 30 sec after ACh
Method: Female Sprague-Dawley rats (225-250 g body weight) were anesthetized with nembutal (50 mg/Kg, i.p.), a tracheostomy tube was inserted, and the carotid artery and jugular vein cannulated by standard methods using polyethylene tubing (PE 50). Tracey, K. J., et al., 1986, SCIENCE 234, 470-474. Blood pressure was recorded continuously with a pressure transducer and recorder (Model RS-3200, Gould Inc.,). In the experiment shown here, animals received a single sterile intra-arterial dose of either N^G-methyl-L-arginine (NMA; Sigma; 10 mg/Kg), Compound No. 14 (50 mg/Kg), or vehicle (0.4 ml). Acetylcholine (ACh) diluted in LPS-free sterile water was administered via the jugular vein cannula at the doses indicated. The solutions were diluted to produce a constant injectable volume of 1 ml/Kg body weight.
The hypotensive (EDRF) response was measured as the decline in mean arterial blood pressure recorded 30 sec after administration of ACh. The number of animals studied at each dose of acetylcholine was 4-6 for each experimental condition; data are expressed as the mean +s.e.m.

LD50 = type: in vivo
TNF = assay: Serum TNF levels after parenteral LPS; type: in vivo, rats; settings: i.p. 2.0 hours prior to LPS; measured 2-3 hours after LPS
Method: Qualitatively similar data has been obtained by measurement of the serum TNF levels in rats stimulated to produce TNF by parenteral LPS administration. Rats were given Compound No. 14, i.p., 2.0 hours prior to LPS stimulation. The serum levels of TNF were measured at between 2 and 3 hours after LPS stimulation.

RAW 264.7 cells [3] = assay: Whole cell inhibition assay for NO (nitrite) output; type: cell-based, murine; settings: for no2/no3 % suppression of induced production: γIFN+LPS, 18 hours
Method: RAW 264.7 cells are plated in microculture wells at 1×10^6/ml in RPMI 1640 with 10% FBS and otherwise standard culture conditions and allowed to adhere for 5 hours. They are then activated with 25 U/ml γIFN and 0.1 μg/ml LPS in the presence of test inhibitors. The urea concentration present in the supernatant media, after 18 hours of culture, is determined by a colorimetric blood urea nitrogen diacetylmonoxime assay performed on an aliquot of the culture supernatant (Sigma Chem. Co., St. Louis, Mo.) and inhibition is expressed as the percentage urea compared to that of a parallel control culture treated identically except that the concentration of added inhibitor is zero.
The production of nitrite is determined by assay of the same tissue culture supernatant by means of a calorimetric assay. Briefly, 4 parts of test solution containing 1% (w/v) sulfanilamide, 0.1% naphthylethylenediamine di-HCl (Griess Reagent), 2.5% H3PO4 and one part media are mixed, incubated for 10 minutes and the absorbance at 560 nm determined. The nitrite concentrations are interpolated from reference curves prepared using NaNO2.
Various concentrations of the test compounds are included in the media of the stimulated RAW 264.7 cells in culture. The concentration of urea and/or nitrite after 18 hours of activated culture is determined and compared to the uninhibited control value obtained from at least one parallel culture. The fractional reduction is calculated for each concentration of inhibitor and the IC50 (concentration giving 50% reduction) is interpolated. Compounds were dissolved in media with mild heat (60° C.). Those with limited solubility were dissolved in base. The concentration of stock solutions of those compounds which were not completely soluble was determined by OD280.
as §1

MIP-1α = assay: Cytokine production by LPS/γIFN-stimulated human PBMC: MIP-1α; type: cell-based; settings: γIFN+LPS, 18 hr
Excerpt: Similar results concerning a variety of cytokines in addition to TNF, e.g., IL-6 and Macrophage Inflammatory Proteins-1α and -1β (MIP-1α and MIP-1β) were obtained using human peripheral blood as a source of monocytes. Human peripheral blood mononuclear cells (PBMC) were isolated using “FICOLL®”-based methods and plated in standard 6-well culture plates at a concentration of 10^6/well and allowed to adhere for from 2 hr to overnight whereupon non-adherent cells were washed out and the medium was then replaced with medium containing the compound to be tested. One hour later, the medium was supplemented so as to contain 25 U/ml γIFN and 0.1 μg/ml LPS and the cultures incubated a further 18 hr. The medium was then collected, and cell debris removed by centrifugation. This conditioned supernatant was then assayed for the presence of cytokines using the standard methodologies of L929 cell cytotoxicity bioassay and immunoassay (ELISA).

CC(=NNC(=N)N)c1cc(NC(=O)CCCCCCCCC(=O)Nc2cc(C(C)=NNC(=N)N)cc(C(C)=NNC(=N)N)c2)cc(C(C)=NNC(=N)N)c1.Cl.Cl.Cl.Cl [Compound 14, N,N′-bis(3,5-diacetyl-phenyl)decanediamide tetrakis(amidinohydrazone) tetrahydrochloride]
arginine transport % suppression of induced peak (RAW 264.7 cells [1]; dose 2 μM): 9%
arginine transport % suppression of induced peak (RAW 264.7 cells [1]; dose 10 μM): 19%
arginine transport % suppression of induced peak (RAW 264.7 cells [1]; dose 50 μM): 86%
arginine transport % suppression of induced peak (RAW 264.7 cells [1]; dose 200 μM): 100%
IC50 (RAW 264.7 cells [1]; exposed prior to stimulation, uptake measured at 8 hours, read-out: I.C.50 for arginine uptake): 7.5 µM
acetylcholine-induced EDRF activity in vivo [2]: did not suppress
LD50 (LD50; given intraperitoneally): 50 mg/kg
LD50 (LD50; given orally): exceeds 1 g/kg
serum TNF level vs untreated controls (TNF): about half the level of serum TNF
no2/no3 % suppression of induced production (RAW 264.7 cells [3]; dose 2 μM): 0%
no2/no3 % suppression of induced production (RAW 264.7 cells [3]; dose 10 μM): 69%
no2/no3 % suppression of induced production (RAW 264.7 cells [3]; dose 50 μM): 100%
no2/no3 % suppression of induced production (RAW 264.7 cells [3]; dose 200 μM): 100%
IC50 (RAW 264.7 cells [3]; exposed from 8 hours after stimulation, NO output during hours 12-24, mean±std. err., n=3, read-out: I.C.50 for NO output): 20 ± 2 µM
concentration that effectively inhibited production of MIP-1α (MIP-1α): 10 to 20 µM
